{"source": "patent US20060252807A1", "about": "“Novel ortho-terphenyl inhibitors of p38 kinase and methods of treating inflammatory disorders” (Kalypsys, Inc., priority 2005, published 2006)", "data": [{"target": "T1, active p38 alpha enzyme (Upstate Biotechnology) (Homo sapiens, UniProt Q16539)", "T1 construct": "purchased Upstate Biotechnology", "T1 sequence (Q16539 whole entry)": "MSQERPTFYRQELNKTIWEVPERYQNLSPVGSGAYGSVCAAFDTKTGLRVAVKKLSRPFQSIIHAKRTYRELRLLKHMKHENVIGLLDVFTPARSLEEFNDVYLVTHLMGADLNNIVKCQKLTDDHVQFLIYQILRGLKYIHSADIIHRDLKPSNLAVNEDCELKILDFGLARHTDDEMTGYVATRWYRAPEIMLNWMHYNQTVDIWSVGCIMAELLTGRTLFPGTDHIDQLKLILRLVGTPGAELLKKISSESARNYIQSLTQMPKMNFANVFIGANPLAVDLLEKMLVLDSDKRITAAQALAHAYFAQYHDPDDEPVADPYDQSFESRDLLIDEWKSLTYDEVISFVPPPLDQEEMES", "assay": "p38α biochemical assay (ATP turnover, luminescent detection, Cambrex PKlight)", "settings": "p38α biochemical assay, Table 1 Biological Activity", "summary_of_the_method": "(§1)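 Luminescent ATP-depletion readout measures total ATP turnover by p38α phosphorylating whole MapkapK2 protein. ATP 1.4 uM final; 30C, 2 h. Compounds delivered from DMSO.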", "units": {"IC50": "nM"}, "values": [{"smiles": "Cc1onc(-c2ccc(Cl)cc2)c1-c1ccn(C(=O)NCc2ccco2)n1", "note": "[Example 11, 3-|3-(4-Chloro-phenyl)-5-methyl-isoxazol-4-yl|-pyrazole-1-carboxylic acid (furan-2-ylmethyl)-amide]", "IC50": "> 1000"}, {"smiles": "COc1cc(OC)cc(C(=O)NCc2nc(-c3ccc(F)cc3)c(-c3nc(C(=O)NC(C)C)cs3)o2)c1", "note": "[Example 227]", "IC50": "> 1000"}, {"smiles": "CC(C)NC(=O)c1csc(-c2oc(CNC(=O)c3ccc(Cl)cc3[N+](=O)[O-])nc2-c2ccc(F)cc2)n1", "note": "[Example 273]", "IC50": "≤ 1000"}, {"smiles": "CC(C)NC(=O)c1csc(-c2oc(CNC(=O)c3c(F)cccc3Cl)nc2-c2ccc(F)cc2)n1", "note": "[Example 200]", "IC50": "≤ 1000"}, {"smiles": "CC(C)NC(=O)c1csc(-c2c(-c3ccc(F)cc3)noc2CNC(=O)c2ncc[nH]2)n1", "note": "[Example 581]", "IC50": "> 1000"}, {"smiles": "CC(C)NC(=O)c1csc(-c2c(-c3ccc(F)cc3)noc2CNC(=O)c2ccccc2Cc2ccccc2)n1", "note": "[Example 762]", "IC50": "> 1000"}, {"smiles": "CC(C)NC(=O)c1csc(-c2c(-c3ccc(F)cc3)noc2C2CCN(C(=O)CO)CC2)n1", "note": "[Example 36, 2-{3-(4-Fluoro-phenyl)-5-|1-(2-hydroxy-acetyl)-piperidin-4-yl|-isoxazol-4-yl}-thiazole-4-carboxylic acid isopropylamide]", "IC50": "≤ 1000"}, {"smiles": "CC(C)NC(=O)c1csc(-c2c(-c3ccc(F)cc3)noc2CNC(=O)c2c(F)cccc2Cl)n1", "note": "[Example 675]", "IC50": "> 1000"}, {"smiles": "CC(C)NC(=O)c1csc(-c2c(-c3ccc(F)cc3)noc2CNC(=O)c2ccc(Oc3ccccc3)cc2)n1", "note": "[Example 765]", "IC50": "> 1000"}, {"smiles": "CC(C)NC(=O)c1csc(-c2oc(CNC(=O)c3cccc(Oc4ccccc4)c3)nc2-c2ccc(F)cc2)n1", "note": "[Example 288]", "IC50": "> 1000"}, {"smiles": "CC(C)NC(=O)c1csc(-c2c(-c3ccc(F)cc3)noc2CNC(=O)c2cc3cc(Cl)ccc3o2)n1", "note": "[Example 739]", "IC50": "> 1000"}, {"smiles": "CC(C)NC(=O)c1csc(-c2oc(CN3CCN(C(=O)C(C)c4ccc(-c5ccccc5)c(F)c4)CC3)nc2-c2ccc(F)cc2)n1", "note": "(centres unmarked) [Example 561]", "IC50": "> 1000"}, {"smiles": "Cc1ccccc1C(=O)NCc1onc(-c2ccc(F)cc2)c1-c1nc(C(=O)NC(C)C)cs1", "note": "[Example 597]", "IC50": "> 1000"}, {"smiles": "CC(C)NC(=O)c1csc(-c2c(-c3ccc(F)cc3)noc2CNC(=O)c2ccc(F)cc2)n1", "note": "[Example 601]", "IC50": "> 1000"}, {"smiles": "CC(C)NC(=O)c1csc(-c2c(-c3ccc(F)cc3)noc2CNC(=O)/C=C/c2ccc(Cl)cc2)n1", "note": "[Example 705]", "IC50": "> 1000"}, {"smiles": "CC(C)NC(=O)c1csc(-c2oc(CN3CCN(C(=O)c4cc(Br)ccc4Cl)CC3)nc2-c2ccc(F)cc2)n1", "note": "[Example 557]", "IC50": "> 1000"}, {"smiles": "Cc1cc(C)c(C(=O)NCc2nc(-c3ccc(F)cc3)c(-c3nc(C(=O)NC(C)C)cs3)o2)c(C)c1", "note": "[Example 175]", "IC50": "> 1000"}, {"smiles": "CC(C)NC(=O)c1csc(-c2oc(CN3CCN(C(=O)c4ccncc4)CC3)nc2-c2ccc(F)cc2)n1", "note": "[Example 350]", "IC50": "≤ 1000"}, {"smiles": "CCCCOc1ccc(C(=O)NCc2onc(-c3ccc(F)cc3)c2-c2nc(C(=O)NC(C)C)cs2)cc1", "note": "[Example 738]", "IC50": "> 1000"}, {"smiles": "CCc1ccc(C(=O)NCc2onc(-c3ccc(F)cc3)c2-c2nc(C(=O)NC(C)C)cs2)cc1", "note": "[Example 615]", "IC50": "> 1000"}, {"smiles": "Cc1cccc(C(=O)NCc2onc(-c3ccc(F)cc3)c2-c2nc(C(=O)NC(C)C)cs2)c1[N+](=O)[O-]", "note": "[Example 696]", "IC50": "> 1000"}, {"smiles": "CC(C)NC(=O)c1csc(-c2oc(CN3CCN(C(=O)c4cc([N+](=O)[O-])ccc4F)CC3)nc2-c2ccc(F)cc2)n1", "note": "[Example 472]", "IC50": "> 1000"}, {"smiles": "Cc1ccc(C(=O)N2CCN(Cc3nc(-c4ccc(F)cc4)c(-c4nc(C(=O)NC(C)C)cs4)o3)CC2)cc1", "note": "[Example 360]", "IC50": "> 1000"}]}, {"target": "T1, active p38 alpha enzyme (Upstate Biotechnology)", "assay": "p38α biochemical assay (ATP turnover, luminescent detection, Cambrex PKlight)", "settings": "p38α kinase; Table 1 Biological Activity", "summary_of_the_method": "as §1", "units": {"IC50": "nM"}, "values": [{"smiles": "O=C(N[C@H](CO)Cc1ccccc1)c1csc(-c2c(-c3ccc(F)cc3)n[nH]c2C2CCNCC2)n1", "note": "[Example 2121]", "IC50": "> 1000"}, {"smiles": "CC(C)NC(=O)c1csc(-c2c(-c3ccc(F)cc3)noc2CNc2cc(Cl)c(Cl)c(Cl)c2)n1", "note": "[Example 1692]", "IC50": "> 1000"}, {"smiles": "CC1CC(C)CN(Cc2onc(-c3ccc(F)cc3)c2-c2nc(C(=O)NC(C)C)cs2)C1", "note": "(centres unmarked) [Example 1531]", "IC50": "> 1000"}, {"smiles": "CC(C)NC(=O)c1csc(-c2c(-c3ccc(F)cc3)noc2CN2CCN(c3ccccc3C#N)CC2)n1", "note": "[Example 1586]", "IC50": "> 1000"}, {"smiles": "O=C(NCC(F)(F)F)c1csc(-c2c(-c3ccc(F)cc3)ncn2C2CCNCC2)n1", "note": "[Example 2185, 2-|5-(4-Fluoro-phenyl)-3-piperidin-4-yl-3H-imidazol-4-yl|-thiazole-4-carboxylic acid (2,2,2-trifluoro-ethyl)-amide]", "IC50": "≤ 1000"}, {"smiles": "CNCc1onc(-c2ccc(F)cc2)c1-c1nc(C(=O)NC(C)C)cs1", "note": "[Example 1382]", "IC50": "> 1000"}, {"smiles": "CC(C)NC(=O)c1csc(-c2c(-c3ccc(F)cc3)n[nH]c2C2CCN(C(=O)C(C)(C)C)CC2)n1", "note": "[Example 817]", "IC50": "≤ 1000"}, {"smiles": "Cc1nc(-c2ccc(F)cc2)c(-c2nc(C(=O)N(C)CC(O)c3ccc(O)cc3)cs2)s1", "note": "(centres unmarked) [Example 1897]", "IC50": "> 1000"}, {"smiles": "CC(C)NC(=O)c1csc(-c2oc(CNc3ccc(OC(F)(F)F)cc3)nc2-c2ccc(F)cc2)n1", "note": "[Example 1361]", "IC50": "> 1000"}, {"smiles": "CC(C)NC(=O)c1csc(-c2c(-c3ccc(F)cc3)noc2CNCc2cccc(C(F)(F)F)c2)n1", "note": "[Example 1494]", "IC50": "> 1000"}, {"smiles": "CC(C)NC(=O)c1csc(-c2oc(CNCCc3ccc(S(N)(=O)=O)cc3)nc2-c2ccc(F)cc2)n1", "note": "[Example 1176]", "IC50": "≤ 1000"}, {"smiles": "CC(C)NC(=O)c1csc(-c2c(-c3ccc(F)cc3)n[nH]c2C2CCN(C(=O)C3CN(C(=O)OC(C)(C)C)CCN3)CC2)n1", "note": "(centres unmarked) [Example 1029]", "IC50": "≤ 1000"}, {"smiles": "O=C(NCCc1ccc(F)cc1)c1csc(-c2c(-c3ccc(F)cc3)n[nH]c2C2CCNCC2)n1", "note": "[Example 2104]", "IC50": "> 1000"}, {"smiles": "COC(=O)c1ccc(C(=O)N2CCC(c3[nH]nc(-c4ccc(F)cc4)c3-c3nc(C(=O)NC(C)C)cs3)CC2)cc1", "note": "[Example 928]", "IC50": "> 1000"}, {"smiles": "CC(C)NC(=O)c1csc(-c2oc(CNCc3ccc(Cl)c(Cl)c3)nc2-c2ccc(F)cc2)n1", "note": "[Example 1168]", "IC50": "> 1000"}, {"smiles": "CC(C)NC(=O)c1csc(-c2c(-c3ccc(F)cc3)noc2CN2CCN(C(=O)OC(C)(C)C)C[C@H]2CO)n1", "note": "[Example 1618]", "IC50": "> 1000"}, {"smiles": "CC(C)NC(=O)c1csc(-c2c(-c3ccc(F)cc3)n[nH]c2C2CCN(C(=O)C3CC(O)CN3C(=O)OC(C)(C)C)CC2)n1", "note": "(centres unmarked) [Example 1031]", "IC50": "≤ 1000"}, {"smiles": "O=C(NC1CONC1=O)c1csc(-c2c(-c3ccc(F)cc3)n[nH]c2C2CCNCC2)n1", "note": "(centres unmarked) [Example 2059]", "IC50": "> 1000"}, {"smiles": "CC(C)NC(=O)c1csc(-c2c(-c3ccc(F)cc3)n[nH]c2C2CCN(C(=O)c3ccccc3O)CC2)n1", "note": "[Example 839]", "IC50": "> 1000"}, {"smiles": "Cc1nc(-c2ccc(F)cc2)c(-c2nc(C(=O)NCc3ccc(F)c(Cl)c3)cs2)s1", "note": "[Example 1807]", "IC50": "≤ 1000"}, {"smiles": "CC(C)NC(=O)c1csc(-c2c(-c3ccc(F)cc3)noc2CN(CCO)Cc2ccccc2)n1", "note": "[Example 1559]", "IC50": "> 1000"}, {"smiles": "Cc1nc(-c2ccc(F)cc2)c(-c2nc(C(=O)Nc3ccccc3F)cs2)s1", "note": "[Example 1963]", "IC50": "> 1000"}, {"smiles": "CC(C)NC(=O)c1csc(-c2c(-c3ccc(F)cc3)noc2CNc2ccc3c(c2)CCC3)n1", "note": "[Example 1656]", "IC50": "> 1000"}, {"smiles": "CCOc1cccc(NCc2nc(-c3ccc(F)cc3)c(-c3nc(C(=O)NC(C)C)cs3)o2)c1", "note": "[Example 1341]", "IC50": "> 1000"}, {"smiles": "CCNC(=O)c1csc(-c2sc(C)nc2-c2ccc(F)cc2)n1", "note": "[Example 1706]", "IC50": "≤ 1000"}, {"smiles": "CC(C)NC(=O)c1csc(-c2oc(CNCc3cccc(Cl)c3)nc2-c2ccc(F)cc2)n1", "note": "[Example 1130]", "IC50": "> 1000"}, {"smiles": "CC(C)CN(C)Cc1nc(-c2ccc(F)cc2)c(-c2nc(C(=O)NC(C)C)cs2)o1", "note": "[Example 1192]", "IC50": "> 1000"}, {"smiles": "CC(C)NC(=O)c1csc(-c2c(-c3ccc(F)cc3)noc2CNc2ccc(F)cc2F)n1", "note": "[Example 1654]", "IC50": "> 1000"}, {"smiles": "Cc1nc(-c2ccc(F)cc2)c(-c2nc(C(=O)N3CCN(c4cccc(Cl)c4)CC3)cs2)s1", "note": "[Example 1924]", "IC50": "> 1000"}, {"smiles": "CC(C)NC(=O)c1csc(-c2c(-c3ccc(F)cc3)n[nH]c2C2CCN(C(=O)c3cc(O)ccc3[N+](=O)[O-])CC2)n1", "note": "[Example 947]", "IC50": "≤ 1000"}, {"smiles": "CC(C)NC(=O)c1csc(-c2c(-c3ccc(F)cc3)noc2CNCCCn2ccnc2)n1", "note": "[Example 1437]", "IC50": "> 1000"}, {"smiles": "Cc1nc(-c2ccc(F)cc2)c(-c2nc(C(=O)Nc3ccc(F)c(C(F)(F)F)c3)cs2)s1", "note": "[Example 2015]", "IC50": "> 1000"}, {"smiles": "CC(C)NC(=O)c1csc(-c2oc(CN3Cc4ccccc4C3)nc2-c2ccc(F)cc2)n1", "note": "[Example 1216]", "IC50": "> 1000"}, {"smiles": "O=C(NCCCCO)c1csc(-c2c(-c3ccc(F)cc3)n[nH]c2C2CCNCC2)n1", "note": "[Example 2053]", "IC50": "> 1000"}, {"smiles": "CC(C)NC(=O)c1csc(-c2c(-c3ccc(F)cc3)noc2CN(CCO)CCO)n1", "note": "[Example 1530]", "IC50": "> 1000"}, {"smiles": "Cc1nc(-c2ccc(F)cc2)c(-c2nc(C(=O)NCCN(C)C)cs2)s1", "note": "[Example 1726]", "IC50": "> 1000"}, {"smiles": "COc1ccc(N2CCN(C(=O)c3csc(-c4sc(C)nc4-c4ccc(F)cc4)n3)CC2)cc1", "note": "[Example 1920]", "IC50": "> 1000"}, {"smiles": "Cc1nc(-c2ccc(F)cc2)c(-c2nc(C(=O)N3CCN(c4ccc(Cl)c(Cl)c4)CC3)cs2)s1", "note": "[Example 1949]", "IC50": "> 1000"}, {"smiles": "Cc1ccc([C@H](C)NCc2onc(-c3ccc(F)cc3)c2-c2nc(C(=O)NC(C)C)cs2)cc1", "note": "[Example 1446]", "IC50": "> 1000"}, {"smiles": "CC(C)NC(=O)c1csc(-c2c(-c3ccc(F)cc3)ncn2C2CCN(CCO)CC2)n1", "note": "[Example 2193, 2-{5-(4-Fluoro-phenyl)-3-|1-(2-hydroxy-ethyl)-piperidin-4-yl|-3H-imidazol-4-yl}-thiazole-4-carboxylic acid isopropylamide]", "IC50": "> 1000"}, {"smiles": "CC(C)NC(=O)c1csc(-c2c(-c3ccc(F)cc3)n[nH]c2C2CCN(C(=O)C(O)CCl)CC2)n1", "note": "(centres unmarked) [Example 829]", "IC50": "≤ 1000"}, {"smiles": "CC(C)NC(=O)c1csc(-c2oc(CNCC(C)c3ccccc3)nc2-c2ccc(F)cc2)n1", "note": "(centres unmarked) [Example 1117]", "IC50": "> 1000"}]}]}
